Measured values taken from article PMC11959706, “Allatostatin-C signaling in the crab Carcinus maenas is implicated in the ecdysis program” (The Journal of Experimental Biology, 2025).
Like-named read-outs stand apart in the source and are kept apart here. Bridge positions count the residues as written; N and C are the ends. Ends that are not written are not given here.

Experiments:
[1] = test system: antiserum raised against Manduca sexta AST-C; test: AST-C radioimmunoassay standard curves and cross-reactivity; type: binding; details: competitive RIA with iodinated AST-C tracer, antiserum 1:1000; typical standard curves
Experimental: AST-C (300 pmol, dissolved in 10 µl 200 mmol l^−1 phosphate buffer at pH 7.5) was radio iodinated with 9.25–12.5 MBq NaI^125 in 10^−5 mol l^−1 NaOH (PerkinElmer, Boston MA), using Chloramine-T ([Bolton, 1989]). Following termination of the reaction (4.3 µg cysteine in 100 µl phosphate buffer) and quenching (500 µl of 0.2 mg ml^−1 KI in phosphate buffer), radiolabeled peptide was separated from unincorporated iodide on Sep-Pak C18 cartridges (Waters, Milford, MA, USA), by firstly washing with 10 ml of 200 mmol l^−1 phosphate buffer then eluting the peptide with 40% isopropanol in 500 µl fractions. Small quantities (2 µl) were then taken for counting. Specific activities of 8–16 TBq mmol^−1 were routinely obtained.
RIA conditions were as follows: iodinated AST-C 35,000 dpm per 50 µl PBS containing 0.05% BSA and 0.02% sodium azide. An antiserum raised against Manduca sexta AST-C (a generous gift from Dr N. Audsley, FERA, York) was used at 1:1000 in PBS at 50 µl per tube. Standard peptides 2–2000 fmol per 50 µl and unknowns were assayed in duplicate. Tubes were first incubated for 6 h at room temperature, without tracer, which was then added, followed by 4°C incubation overnight. […]

AST-C receptor [2] = details: cited from earlier work; for EC50: Apis mellifera single AST-C receptor, ref Urlacher et al., 2016, read-out: EC50, receptor activation; for ED50, receptor activation: Tribolium castaneum AST-C receptor, ref Audsley et al., 2013
Description: Thus, the cognate receptor for AST-CCC remains elusive. Despite the well-known similarity in receptor sequences between AST-CR and the somatostatin receptor ([Krienkamp et al., 2002]; [Mayoral et al., 2010]; [Jékely, 2013]; [Verl ...

AST-C receptor [3] = details: S. paramamosain AST-C receptor, CRE-Luc reporter, HEK293; ref Liu et al., 2021; cited from earlier work
Description: For decapod crustaceans, the only other AST-C receptors that have been functionally de-orphaned are those from Cancer borealis, using EGFP fused to the C-terminus of the AST-C receptor and expression in Spodoptera frugiperda SF9 cells ([Dickinson et al., 2019]), and from H. americanus, using chimeric EGFP constructs in Tricoplusia ni cells.

YOs = test system: YOs; design: method as in Liu et al., 2021; details: 10^−6 M; S. paramamosain; EIA measuring 20-hydroxyecdysone; ref Liu et al., 2021; cited from earlier work
vitellogenesis = details: S. paramamosain; ref Liu et al., 2019; cited from earlier work
Description: It is likely that vitellogenesis takes place during inter-molt in this species, as it does in C. maenas ([Styrishave et al., 2008]), a closely related portunid crab. Since AST-C and likely AST-CC are only ephemerally released during the completion of ecdysis in the latter species, involvement of AST-C in inhibition of vitellogenesis seems entirely improbable, and it is extremely unlikely that in vivo injection of AST-C, as reported by [Liu et al. (2019)], has any biological relevance i ...

| Substance | ED50 in AST-C RIA standard curve [1] [fmol per tube] | EC50 (AST-C receptor [2]) [nM] | ED50, receptor activation (AST-C receptor [2]) [nM] | ED50, receptor activation (AST-C receptor [3]) [nM] | Effect on ecdysteroid synthesis by YOs in vitro (YOs) | Effect of in vivo injection on vitellogenesis (vitellogenesis) |
| --- | --- | --- | --- | --- | --- | --- |
| GNGDGRLYWRCYFNAVSCF (disulfide 11-18 (inferred)) [AST-CC, C. maenas AST-C family neuropeptide; synthetic (GenScript)] | 8000 | 15.4 | 105.7 |  |  |  |
| pQIRYHQCYFNPISCF (disulfide) [AST-C, allatostatin-C, C. maenas AST-C family neuropeptide with C-terminal PISCF motif; synthetic (GenScript)] | 20 | 14.6 | 25 | ~6 | slightly inhibit | inhibits vitellogenesis |
